The target in test [1] is T1, Thromboxane A2 receptor (Homo sapiens, UniProt P21731).
T1 sequence (P21731 whole entry): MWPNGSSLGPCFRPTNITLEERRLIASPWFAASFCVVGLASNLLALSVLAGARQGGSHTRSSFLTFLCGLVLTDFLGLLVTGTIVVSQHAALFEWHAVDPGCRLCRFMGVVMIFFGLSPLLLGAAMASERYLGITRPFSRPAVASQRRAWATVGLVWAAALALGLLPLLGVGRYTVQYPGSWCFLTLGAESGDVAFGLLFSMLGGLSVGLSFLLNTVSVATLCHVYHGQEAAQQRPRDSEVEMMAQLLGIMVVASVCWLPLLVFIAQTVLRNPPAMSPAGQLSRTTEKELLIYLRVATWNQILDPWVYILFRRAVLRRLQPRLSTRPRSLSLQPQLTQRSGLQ
As to the kind of experiment: Activity against thromboxane A2 receptor evaluated by aggregation of human platelets at 0-10 uM; Not active.

Test [2] addresses T2, Thromboxane A2 receptor (Rattus norvegicus, UniProt P34978).
T2 sequence (P34978 whole entry): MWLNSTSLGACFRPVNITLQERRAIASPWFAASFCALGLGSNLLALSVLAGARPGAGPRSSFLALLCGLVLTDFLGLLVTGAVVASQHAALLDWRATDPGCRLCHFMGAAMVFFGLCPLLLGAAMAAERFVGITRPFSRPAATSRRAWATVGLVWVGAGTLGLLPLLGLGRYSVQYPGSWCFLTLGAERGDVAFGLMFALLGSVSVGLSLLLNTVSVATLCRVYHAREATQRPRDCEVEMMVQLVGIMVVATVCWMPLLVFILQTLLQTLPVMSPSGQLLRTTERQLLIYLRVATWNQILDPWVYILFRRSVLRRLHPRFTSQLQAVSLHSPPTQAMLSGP
As to the kind of experiment: Activity against thromboxane A2 receptor evaluated by contraction of isolated rat thoracic aorta. It is filed as tissue-based.

pEC50: −log10 of the molar value.

As for `CCCCCC(O)/C=C/[C@@H]1[C@@H](C/C=C\CCCC(=O)NC(C)C)[C@@H]2C[C@H]1OC(=O)O2` (stereo partly specified), the EC50 result in test [1] is “Not Active”. The pEC50 (usually the negative decadic logarithm of the EC50, by convention in mol/L) in test [2] was 6.49.
Molecule `CCCCCC(O)/C=C/[C@@H]1[C@@H](C/C=C\CCCC(=O)O)[C@@H]2C[C@H]1OC(=O)O2` (stereo partly specified) showed a negative logarithm of the EC50 (pEC50) in test [2] of 9.64.
In test [2], `CCCCCC(O)/C=C/[C@@H]1[C@@H](C/C=C\CCCC(N)=O)[C@@H]2C[C@H]1OC(=O)O2` (stereo partly specified) had a negative-log EC50 (pEC50) of 7.24. This pEC50 is 2.40 log units lower than that of the molecule before.
Take `CCCCCC(O)/C=C/[C@@H]1[C@@H](C/C=C\CCCCO)[C@@H]2C[C@H]1OC(=O)O2` (stereo partly specified): the EC50 result in test [1] is reported as “Not Active”. Besides, the pEC50 in test [2] is 9.00.

For the origin of these results see ChEMBL document CHEMBL1149963, “Synthesis of a novel series of 3-oxo-2,4-dioxobicyclo[3.2.1]octanes: additional evidence for two thromboxane receptor subtypes” (Bioorg Med Chem Lett, 1994).
